Measurements reported in PubChem BioAssay AID588437 (Southern Research Specialized Biocontainment Screening …, 2011).
Values joined by “and” are separate entries in the source; they are usually repeats but may differ in a detail not shown here. Identical values can stand only once. Inconclusive results are not listed. Active and inactive are the calls of the source. How the calls were made is not given here.

Columns and labels:
[1] = test system: Mycobacterium tuberculosis H37Rv growth inhibition, no glycerol; assay: Mycobacterium tuberculosis h37rv growth inhibition in absence of glycerol, confirmatory dose response (AID 588437); details: for IC50: measured here: IC50 growth inhibition replicates
[2] = as above; details: Mycobacterium tuberculosis H37Rv growth inhibition, no glycerol

With `CC1CCCN(C(=O)C2CCC(CNc3c(N4CCCCC4)c(=O)c3=O)CC2)C1` (centres undefined) the IC50 [1] was 64.3 µM.
With `CCOC(=O)N1CCC(Nc2c(Nc3cccc(CC)c3)c(=O)c2=O)CC1` the IC90 [1] was 85.3 µM and the IC50 [1] was 65.1 µM.
For `COc1ccc(N2CCN(C(=O)c3ccc(CNc4c(N5CCOCC5)c(=O)c4=O)cc3)CC2)cc1`, the IC50 [1] was 21.7 µM and 18.5 µM.
With `O=C(C1CCC(CNc2c(N3CCCCC3)c(=O)c2=O)CC1)N1CCCCC1` (centres undefined) the IC50 [1] was 59.6 µM.
For `CC1CCN(C(=O)c2ccc(CNc3c(N4CCCC4)c(=O)c3=O)cc2)CC1`, the IC50 [1] was 20.3 µM.
With `O=C(c1ccc(CNc2c(N3CCOCC3)c(=O)c2=O)cc1)N1CC=C(c2ccccc2)CC1` the IC90 [1] was 15.4 µM and the IC50 [1] was 4.83 µM.
`CCC(C)NC(=O)CSc1nc2ccccc2c(=O)[nH]1` (centres undefined) gave an IC90 [1] of 4.01 µM and an IC50 [1] of 2.98 µM.
With `O=C(NCCc1ccc(Cl)cc1)C1CCC(CNc2c(N3CCCCC3)c(=O)c2=O)CC1` (centres undefined) the IC50 [1] was 22.4 µM.
For `O=C(NCCc1ccc(Cl)cc1)c1ccc(CNc2c(N3CCOCC3)c(=O)c2=O)cc1`, the IC50 [1] was 11 µM and 11.2 µM.
For `Cc1cccc(N2CCN(C(=O)c3ccc(CNc4c(N5CCC(C)CC5)c(=O)c4=O)cc3)CC2)c1C`, the outcome [2] was “inactive”.
With `CCOc1ccc(NC(=O)c2ccc(CNc3c(N4CCCC4)c(=O)c3=O)cc2)cc1` the outcome [2] was “inactive”.
For `CC(=O)c1ccc(NC(=O)c2ccc(CNc3c(N4CCOCC4)c(=O)c3=O)cc2)cc1`, the IC50 [1] was over 98.8 µM.
For `CC1CC(C)CN(C(=O)c2ccc(CNc3c(N4CCCC4)c(=O)c3=O)cc2)C1` (centres undefined), the IC50 [1] was 22.8 µM.
For `O=C(c1ccc(CNc2c(N3CCCC3)c(=O)c2=O)cc1)N1CC=C(c2ccccc2)CC1`, the IC50 [1] was 12.5 µM and 8.13 µM.
For `CC1CC(C)CN(C(=O)C2CCC(CNc3c(N4CCCCC4)c(=O)c3=O)CC2)C1` (centres undefined), the IC50 [1] was 26.9 µM and 35.5 µM.
With `COC(=O)CSc1ncnc2c1cnn2-c1ccc(C)cc1C` the IC90 [1] was 6.65 µM and the IC50 [1] was 5.41 µM.
`CC(C)OC(=O)CSc1ncnc2c1cnn2-c1ccccc1` showed an IC50 [1] of 29.5 µM.
Compound `CC1CCCN(C(=O)c2ccc(CNc3c(N4CCCCC4)c(=O)c3=O)cc2)C1` (centres undefined) has an IC50 [1] of 14.1 µM.
For `Cc1cccc(N2CCN(C(=O)c3ccc(CNc4c(N5CCC(C)CC5)c(=O)c4=O)cc3)CC2C)c1` (centres undefined), the IC90 [1] was 51.8 µM and the IC50 [1] was 40.9 µM.
In the case of `CCOC(=O)CSc1ncnc2c1cnn2-c1ccc(C)cc1C`, the IC90 [1] is reported as 7.19 µM and the IC50 [1] is reported as 5 µM.
Compound `O=C(c1ccc(CNc2c(N3CCCC3)c(=O)c2=O)cc1)N1CCc2ccccc2C1` has an IC50 [1] of 13.4 µM.
In the case of `CCOC(=O)CSc1ncnc2c1cnn2-c1ccccc1`, the IC90 [1] is reported as 47.7 µM and the IC50 [1] is reported as 30.2 µM.
